Experiments:
Test in all cases: relative viability (nuclei count vs DMSO), 5 days (fraction); higher = more cells survive
AGI-6780 + Dasatinib = compound: O=C(Nc1cccc(C(F)(F)F)c1)Nc1cc(S(=O)(=O)NC2CC2)ccc1-c1ccsc1 [AGI-6780] + Cc1nc(Nc2ncc(C(=O)Nc3c(C)cccc3Cl)s2)cc(N2CCN(CCO)CC2)n1 [Dasatinib] (partner 0.075 µM)
Outline: (§1)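 For relative viability, nuclei counts in treated wells were divided by those in vehicle wells. Lung cancer cell lines had been pin-tool dosed in 1536-well plates the day after seeding and cultured for 5 days, then fixed and stained in one step (final 0.05% Triton X-100, 1% formaldehyde, 1 ug/ml Hoechst) and imaged at 4×. Doses were one drug alone or a fixed anchor-drug dose plus five library-drug doses (not always all listed) in √10 steps, and values are duplicate-plate medians.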

AGI-6780 + Luminespib = compound: O=C(Nc1cccc(C(F)(F)F)c1)Nc1cc(S(=O)(=O)NC2CC2)ccc1-c1ccsc1 [AGI-6780] + CCNC(=O)c1noc(-c2cc(C(C)C)c(O)cc2O)c1-c1ccc(CN2CCOCC2)cc1 [Luminespib] (partner 0.01 µM)
Outline: as §1

AGI-6780 + Alpelisib = compound: O=C(Nc1cccc(C(F)(F)F)c1)Nc1cc(S(=O)(=O)NC2CC2)ccc1-c1ccsc1 [AGI-6780] + Cc1nc(NC(=O)N2CCC[C@H]2C(N)=O)sc1-c1ccnc(C(C)(C)C(F)(F)F)c1 [Alpelisib] (partner 2 µM)
Outline: as §1

AGI-6780 + Tozasertib = compound: O=C(Nc1cccc(C(F)(F)F)c1)Nc1cc(S(=O)(=O)NC2CC2)ccc1-c1ccsc1 [AGI-6780] + Cc1cc(Nc2cc(N3CCN(C)CC3)nc(Sc3ccc(NC(=O)C4CC4)cc3)n2)n[nH]1 [Tozasertib] (partner 0.1 µM)
Outline: as §1

Cell Line | relative viability (AGI-6780 + Dasatinib; first compound 0.08 µM) | relative viability (AGI-6780 + Dasatinib; first compound 0.253 µM) | relative viability (AGI-6780 + Dasatinib; first compound 0.8 µM) | relative viability (AGI-6780 + Dasatinib; first compound 2.53 µM) | relative viability (AGI-6780 + Dasatinib; first compound 8 µM) | relative viability (AGI-6780 + Luminespib; first compound 0.08 µM) | relative viability (AGI-6780 + Luminespib; first compound 0.253 µM) | relative viability (AGI-6780 + Luminespib; first compound 0.8 µM) | relative viability (AGI-6780 + Luminespib; first compound 2.53 µM) | relative viability (AGI-6780 + Luminespib; first compound 8 µM) | relative viability (AGI-6780 + Alpelisib; first compound 0.08 µM) | relative viability (AGI-6780 + Alpelisib; first compound 0.253 µM) | relative viability (AGI-6780 + Alpelisib; first compound 0.8 µM) | relative viability (AGI-6780 + Alpelisib; first compound 2.53 µM) | relative viability (AGI-6780 + Alpelisib; first compound 8 µM) | relative viability (AGI-6780 + Tozasertib; first compound 0.08 µM) | relative viability (AGI-6780 + Tozasertib; first compound 0.253 µM) | relative viability (AGI-6780 + Tozasertib; first compound 0.8 µM) | relative viability (AGI-6780 + Tozasertib; first compound 2.53 µM) | relative viability (AGI-6780 + Tozasertib; first compound 8 µM)
NCI-H3122 | 0.86 | 0.904 | 0.911 | 0.669 | 0.955 | 0.0953 | 0.0902 | 0.113 | 0.0851 | 0.0997 | 0.876 | 0.859 | 0.892 | 0.633 | 0.822 | 0.373 | 0.398 | 0.445 | 0.298 | 0.389
PC-3 [JPC-3] | 0.992 | 0.974 | 0.944 | 0.922 | 0.923 | 0.59 | 0.71 | 0.727 | 0.629 | 0.67 | 1.02 | 1.02 | 0.976 | 0.983 | 1.02 | 0.943 | 0.859 | 0.94 | 0.858 | 0.813
PC-14 | 0.233 | 0.256 | 0.308 | 0.276 | 0.24 | 0.228 | 0.195 | 0.171 | 0.118 | 0.121 | 0.947 | 0.986 | 0.944 | 0.913 | 0.961 | 0.57 | 0.583 | 0.658 | 0.582 | 0.569
RERF-LC-KJ | 0.895 | 0.93 | 0.822 | 0.511 | 0.667 | 1.25 | 1.17 | 1.33 | 1.16 | 1.17 | 0.784 | 0.824 | 0.779 | 0.672 | 0.75 | 0.506 | 0.619 | 0.461 | 0.452 | 0.34
SK-LU-1 | 0.172 | 0.183 | – | 0.135 | 0.17 | 0.22 | 0.192 | – | 0.199 | 0.224 | 0.957 | 0.906 | 0.797 | 1 | 1.02 | 0.309 | 0.318 | – | 0.279 | 0.327
SK-MES-1 | 0.379 | 0.428 | 0.367 | 0.24 | 0.338 | 0.716 | 0.714 | 0.798 | 0.677 | 0.801 | 0.877 | 0.926 | 0.898 | 0.894 | 0.789 | 1.02 | 0.961 | 1 | 0.88 | 0.747
SW 1573 | 0.467 | 0.516 | 0.442 | – | 0.531 | 0.462 | 0.398 | 0.216 | 0.216 | 0.287 | 0.876 | 0.843 | 0.76 | 0.649 | 0.554 | 0.175 | 0.261 | 0.254 | – | 0.139
UMC-11 | 0.474 | 0.524 | 0.662 | – | 0.488 | 1.16 | 1 | 1.22 | – | 1.11 | 0.938 | 0.866 | 1.07 | – | 0.947 | 0.197 | 0.198 | 0.206 | – | 0.192
